Laboratory results taken from US11229623B2 (GlaxoSmithKline Intellectual Property (No.2) Limited, priority 2016, dated 2022).
Structures can show the parent of a compound that is named as a salt.

These compounds were tested against T1, human TRPV4 (Homo sapiens, UniProt Q9HBA0) (assay: FLIPR assay for hTRPV4 expressed in BHK cells: inhibition of Agonist Compound-induced calcium signal). Details: hTRPV4 in BHK/AC9 cells, FLIPR calcium signal, agonist at EC80; reported as range class; read-out: IC50.
T1 construct: expressed in transfected cells; host or cells: BHK/AC9 cells transduced with BacMam virus
Type: cell-based
Procedure, shortened: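 BHK/AC9 cells transduced with BacMam human TRPV4 (MOI 78), plated 15,000 per well and cultured 24 h at 37° C. Loaded with 2 μM Fluo-4 AM plus 500 μM Brilliant Black in HBSS for 1-1.5 h at room temperature in the dark; intracellular calcium signal read by FLIPR fluorescence.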

T1 sequence (Q9HBA0 whole entry): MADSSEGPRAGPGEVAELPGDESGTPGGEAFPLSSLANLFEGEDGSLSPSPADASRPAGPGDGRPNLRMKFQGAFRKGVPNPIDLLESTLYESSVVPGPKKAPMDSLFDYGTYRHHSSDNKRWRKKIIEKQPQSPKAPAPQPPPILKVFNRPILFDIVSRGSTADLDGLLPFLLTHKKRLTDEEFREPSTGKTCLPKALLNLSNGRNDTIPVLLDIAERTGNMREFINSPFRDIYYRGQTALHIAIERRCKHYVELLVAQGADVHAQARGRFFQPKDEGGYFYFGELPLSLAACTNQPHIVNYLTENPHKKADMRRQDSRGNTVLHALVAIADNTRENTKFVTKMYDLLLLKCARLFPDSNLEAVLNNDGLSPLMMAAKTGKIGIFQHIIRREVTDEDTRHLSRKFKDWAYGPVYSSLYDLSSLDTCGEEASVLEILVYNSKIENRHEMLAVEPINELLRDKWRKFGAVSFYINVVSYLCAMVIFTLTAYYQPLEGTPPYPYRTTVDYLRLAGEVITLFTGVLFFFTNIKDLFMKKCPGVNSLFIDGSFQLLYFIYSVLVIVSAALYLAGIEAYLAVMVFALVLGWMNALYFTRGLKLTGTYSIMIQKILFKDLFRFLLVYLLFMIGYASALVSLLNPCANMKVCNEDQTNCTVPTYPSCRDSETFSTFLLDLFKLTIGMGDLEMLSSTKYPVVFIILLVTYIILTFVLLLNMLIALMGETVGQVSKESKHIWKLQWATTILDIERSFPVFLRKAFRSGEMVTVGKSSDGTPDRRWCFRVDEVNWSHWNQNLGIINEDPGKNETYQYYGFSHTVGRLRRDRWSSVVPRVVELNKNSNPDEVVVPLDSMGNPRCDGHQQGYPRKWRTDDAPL

IC50 [nM] | SMILES
0.1 to 10 | N#Cc1ccc(O[C@H]2CN(S(=O)(=O)c3ccccc3C#N)C[C@@]2(O)CO)cc1F [Example 61, 4-(((3S,4R)-1-((2-cyanophenyl)sulfonyl)-4-hydroxy-4-(hydroxymethyl)pyrrolidin-3-yl)oxy)-2-fluorobenzonitrile]
0.1 to 10 | N#Cc1ccc(S(=O)(=O)N2C[C@H](Oc3ccc(Cl)cc3)[C@](O)(CO)C2)c(Br)c1 [Example 108, 3-bromo-4-(((3R,4S)-4-(4-chlorophenoxy)-3-hydroxy-3-(hydroxymethyl)pyrrolidin-1-yl)sulfonyl)benzonitrile]
0.1 to 10 | COC(=O)c1cc(C#N)ccc1O[C@H]1CN(S(=O)(=O)c2ccc(C(F)(F)F)cc2C#N)C[C@@]1(O)CO [Example 34, methyl 5-cyano-2-(((3S,4R)-1-((2-cyano-4-(trifluoromethyl)phenyl)sulfonyl)-4-hydroxy-4-(hydroxymethyl)pyrrolidin-3-yl)oxy)benzoate]
0.1 to 10 | CC#Cc1ccc(S(=O)(=O)N2C[C@H](Oc3ccc(C#N)c(F)c3)[C@](O)(CO)C2)nc1 [Example 227, 2-fluoro-4-(((3S,4R)-4-hydroxy-4-(hydroxymethyl)-1-((5-(prop-1-yn-1-yl)pyridin-2-yl)sulfonyl)pyrrolidin-3-yl)oxy)benzonitrile]
10 to 100 | N#Cc1ccc(O[C@H]2CN(S(=O)(=O)c3ccc(C#CC4CC4)nc3)C[C@@]2(O)CO)cc1F [Example 226, 4-(((3S,4R)-1-((6-(cyclopropylethynyl)pyridin-3-yl)sulfonyl)-4-hydroxy-4-(hydroxymethyl)pyrrolidin-3-yl)oxy)-2-fluorobenzonitrile]
10 to 100 | N#Cc1ccc(O[C@H]2CN(S(=O)(=O)c3ccc(OC(F)(F)F)nc3)C[C@@]2(O)CN)cc1F [Example 249, 4-(((3S,4S)-4-(aminomethyl)-4-hydroxy-1-((6-(trifluoromethoxy)pyridin-3-yl)sulfonyl)pyrrolidin-3-yl)oxy)-2-fluorobenzonitrile, Hydrochloride]
0.1 to 10 | N#Cc1cc(C(F)(F)F)ccc1S(=O)(=O)N1C[C@H](Oc2ccc(C(F)(F)F)cc2)[C@](O)(CO)C1 [Example 37, 2-(((3R,4S)-3-hydroxy-3-(hydroxymethyl)-4-(4-(trifluoromethyl)phenoxy)pyrrolidin-1-yl)sulfonyl)-5-(trifluoromethyl)benzonitrile]
0.1 to 10 | N#Cc1ccc(O[C@H]2CN(S(=O)(=O)c3ccc(C(F)(F)F)cc3C#N)C[C@@]2(O)CO)c(F)c1 [Example 9, 2-(((3R,4S)-4-(4-cyano-2-fluorophenoxy)-3-hydroxy-3-(hydroxymethyl)pyrrolidin-1-yl)sulfonyl)-5-(trifluoromethyl)benzonitrile]
10 to 100 | COc1ccc(S(=O)(=O)N2C[C@H](Oc3ccc(C#N)c(F)c3)[C@](O)(CO)C2)c(Br)c1 [Example 64, 4-(((3S,4R)-1-((2-bromo-4-methoxyphenyl)sulfonyl)-4-hydroxy-4-(hydroxymethyl)pyrrolidin-3-yl)oxy)-2-fluorobenzonitrile]
0.1 to 10 | N#Cc1ccc(S(=O)(=O)N2C[C@H](Oc3ccc(Cl)cc3)[C@](O)(CO)C2)c(Cl)c1 [Example 106, 3-chloro-4-(((3R,4S)-4-(4-chlorophenoxy)-3-hydroxy-3-(hydroxymethyl)pyrrolidin-1-yl)sulfonyl)benzonitrile]
0.1 to 10 | N#Cc1ccc(O[C@H]2CN(S(=O)(=O)c3cccnc3OC(F)F)C[C@@]2(O)CO)cc1F [Example 122, 4-(((3S,4R)-1-((2-(difluoromethoxy)pyridin-3-yl)sulfonyl)-4-hydroxy-4-(hydroxymethyl)pyrrolidin-3-yl)oxy)-2-fluorobenzonitrile]
10 to 100 | COc1ccc(S(=O)(=O)N2C[C@H](Oc3ccc(C#N)c(F)c3)[C@](O)([C@H](C)O)C2)c(C#N)c1 [Example 199, 4-(((3S,4R)-1-((2-cyano-4-methoxyphenyl)sulfonyl)-4-hydroxy-4-((S)-1-hydroxyethyl)pyrrolidin-3-yl)oxy)-2-fluorobenzonitrile]
